pIC50: −log10 of the molar value.
System: SARS-CoV-2
Assay: microbe, parasite or virus in culture
Details: Severe acute respiratory syndrome coronavirus 2, Vero C1008, 48 h; for IC50: read-out: pIC50 (converted)

Row | SMILES | pIC50 | IC50 [µM]
1 | CC[C@H](O)C(C[C@@H](C)N(C)C)(c1ccccc1)c1ccccc1 [BETAMETHADOL] | < 4.70 | > 20
2 | c1ccc(C(CCN2CCCCC2)c2ccccc2)cc1 | < 4.70 | > 20
3 | CC(=O)OCC(=O)[C@@]1(O)CC[C@H]2[C@@H]3CCC4=CC(=O)C=C[C@]4(C)[C@@]3(F)[C@@H](O)C[C@@]21C [ISOFLUPREDONE ACETATE] | < 4.70 | > 20
4 | CCOC(=O)[C@]1(c2ccccc2)CCC=C[C@H]1N(C)C [DEXTILIDINE] | < 4.70 | > 20
5 | CNCC(=O)c1ccc(O)c(O)c1 [ADRENALONE] | < 4.70 | > 20
6 | CC(=O)NO [ACETOHYDROXAMIC ACID] | < 4.70 | > 20
7 | CCC(C)(C)O [AMYLENE HYDRATE] | < 4.70 | > 20
8 | CC(C)Cn1c(=O)n(C)c(=O)c2nc[nH]c21 [ISOBUTYLMETHYLXANTHINE] | < 4.70 | > 20
9 | CCC(=O)Nc1c(C)cc(C(=O)N2CCC(N(C)CCc3ccccc3)CC2)cc1C | < 4.70 | > 20
10 | CCCCC(CC)C1NC(=O)N(SC(Cl)(Cl)Cl)C1=O (stereo not drawn) [CHLORDANTOIN] | < 4.70 | > 20
11 | c1cn2cc(-c3ccc4cn[nH]c4c3)nc(Nc3ccc(N4CCOCC4)cc3)c2n1 [ENTOSPLETINIB] | < 4.70 | > 20
12 | OCC(O)C(O)CO (stereo not drawn) | < 4.70 | > 20
13 | CC1(C)C(C=C(Cl)Cl)C1C(=O)OC(C#N)c1cccc(Oc2ccccc2)c1 (stereo not drawn) [ALPHA-CYPERMETHRIN] | < 4.70 | > 20
14 | O=c1c(O)c(-c2cc(O)c(O)c(O)c2)oc2cc(O)cc(O)c12 [MYRICETIN] | < 4.70 | > 20
15 | CN1C2CCCC1CC(=O)C2 | < 4.70 | > 20
16 | CC(=O)C(=O)O [PYRUVATE] | < 4.70 | > 20
17 | Cc1nc2n(c(=O)c1CCN1CCC(c3noc4cc(F)ccc34)CC1)CCCC2 [RISPERIDONE] | < 4.70 | > 20
18 | CC1(C)[C@H](C(=O)O)N2C(=O)C[C@H]2S1(=O)=O [SULBACTAM] | < 4.70 | > 20
19 | NCC(O)c1cccc(O)c1 (stereo not drawn) [NORFENEFRINE] | < 4.70 | > 20
20 | CCOc1ccc(Cc2cc([C@@H]3O[C@H](CO)[C@@H](O)[C@H](O)[C@H]3O)ccc2Cl)cc1 [DAPAGLIFLOZIN] | < 4.70 | > 20
21 | CC(C)n1nc(-c2ccc3oc(N)nc3c2)c2c(N)ncnc21 [SAPANISERTIB] | < 4.70 | > 20
22 | CN1C(=O)[C@@H](NC(=O)c2cc3ccccc3[nH]2)N=C(c2ccccc2)c2ccccc21 [DEVAZEPIDE] | < 4.70 | > 20
23 | Cc1cc(C(=O)NNCc2ccccc2)no1 [ISOCARBOXAZID] | < 4.70 | > 20
24 | CCNC(=O)[C@H]1O[C@@H](n2cnc3c(N)nc(C#CC[C@H]4CC[C@H](C(=O)OC)CC4)nc32)[C@H](O)[C@@H]1O [APADENOSON] | < 4.30 | > 50.1
25 | Cc1ccccc1-n1c(C)nc2ccccc2c1=O [METHAQUALONE] | < 4.70 | > 20

Row | SMILES | pIC50 | IC50 [µM]
26 | O=C(O)CNC(=O)c1nc(Cl)c2ccccc2c1O | < 4.70 | > 20
27 | CCCCOc1cc(C(=O)OCCN(CC)CC)ccc1N [BENOXINATE] | < 4.70 | > 20
28 | O=C(O)c1cccnc1C(=O)O [QUINOLINIC ACID] | < 4.70 | > 20
29 | Cc1ccc(C(=O)N(CCCN)[C@@H](c2nc3cc(Cl)ccc3c(=O)n2Cc2ccccc2)C(C)C)cc1 [ISPINESIB] | < 4.70 | > 20
30 | N#CC(O[C@@H]1O[C@H](CO[C@@H]2O[C@H](CO)[C@@H](O)[C@H](O)[C@H]2O)[C@@H](O)[C@H](O)[C@H]1O)c1ccccc1 (stereo partly drawn) [VITAMIN B17] | < 4.70 | > 20
31 | COc1ccc2[nH]c3c(c2c1)CCN=C3C | < 4.70 | > 20
32 | CN(C)CCCn1c(=O)n(-c2ccccc2)c2cc(Cl)ccc21 [CLODAZON] | < 4.70 | > 20
33 | N/N=c1\[nH][nH]/c(=N\N)c2ccccc12 [DIHYDRALAZINE] | < 4.70 | > 20
34 | C[C@]12CCC(=NOCCN)C[C@@H]1C(=O)C[C@@H]1[C@@H]2CC[C@]2(C)C(=O)CC[C@@H]12 [ISTAROXIME] | < 4.70 | > 20
35 | C=C1c2cccc(O)c2C(=O)C2=C(O)[C@]3(O)C(=O)C(C(N)=O)=C(O)[C@@H](N(C)C)[C@@H]3[C@@H](O)[C@H]12 [METHACYCLINE] | < 4.70 | > 20
36 | C=CC(=O)Nc1cccc(Nc2nc(Nc3ccc(N4CCN(C(C)=O)CC4)cc3OC)ncc2C(F)(F)F)c1 [ROCILETINIB] | < 4.70 | > 20
37 | CC(=O)C12OC(C)(C)OC1CC1C3CCC4=CC(=O)CCC4(C)C3CCC12C (stereo not drawn) | < 4.70 | > 20
38 | Cc1[nH]c(=O)c(C#N)cc1-c1ccncc1 [MILRINONE] | < 4.70 | > 20
39 | O=C(O)c1cc(O)c2cccc(O)c2n1 [XANTHURENATE] | < 4.70 | > 20
40 | Cc1c(C)c2c(c(C)c1O)CCC(C)(COc1ccc(CC3SC(=O)NC3=O)cc1)O2 (stereo not drawn) [TROGLITAZONE] | < 4.70 | > 20
41 | Cn1nnnc1SCC1=C(C(=O)O)N2C(=O)[C@@H](NC(=O)[C@H](O)c3ccccc3)[C@H]2SC1 [CEFAMANDOLE] | < 4.70 | > 20
42 | O=C(C1CCCCC1)N1CC(=O)N2CCc3ccccc3C2C1 (stereo not drawn) [PRAZIQUANTEL] | < 4.30 | > 50.1
43 | CCCCN/C(=N\CC)NC(=N)N [ETOFORMIN] | < 4.70 | > 20
44 | C[C@@]12C(=O)OC(=O)[C@]1(C)[C@H]1CC[C@@H]2O1 [CANTHARIDIN] | < 4.70 | > 20
45 | CS(=N)(=O)CCC(N)C(=O)O (stereo not drawn) | < 4.70 | > 20
46 | C[C@@H]1CN(Cc2ncccn2)C[C@H]1c1nc2c(cnn2C2CCOCC2)c(=O)[nH]1 [EDELINONTRINE] | < 4.70 | > 20
47 | O=C(O)CCC(=O)C(=O)O [ALPHA-KETOGLUTARIC ACID] | < 4.70 | > 20
48 | CCCC1(c2cccc(O)c2)CCN(C)C1 (stereo not drawn) [PROFADOL] | < 4.70 | > 20
49 | CCC(=O)[C@@]1(C)[C@H](C)C[C@H]2[C@@H]3CCC4=CC(=O)C=C[C@]4(C)[C@H]3[C@@H](O)C[C@@]21C [RIMEXOLONE] | < 4.70 | > 20
50 | CC1(COc2ccc(CC3SC(=O)NC3=O)cc2)CCCCC1 (stereo not drawn) [CIGLITAZONE] | < 4.70 | > 20

Row | SMILES | pIC50 | IC50 [µM]
51 | C=C1CC[C@H](O)C/C1=C/C=C1\CCCC2(C)C1CCC2C(C)/C=C/C(C)C(C)C (stereo partly drawn) | < 4.70 | > 20
52 | CC[C@@H]1CN(C(=O)NCC(F)(F)F)C[C@@H]1c1cnc2cnc3[nH]ccc3n12 [UPADACITINIB] | < 4.70 | > 20
53 | C[N+]1(C)C[C@H](O)C[C@H]1C(=O)O | < 4.70 | > 20
54 | CC(=O)OCC(=O)[C@@]12OC(C)(C)O[C@@H]1C[C@H]1[C@@H]3C[C@H](F)C4=CC(=O)C=C[C@]4(C)[C@@]3(F)[C@@H](O)C[C@@]12C [FLUOCINONIDE] | < 4.70 | > 20
55 | COc1cc(/C=C2\CCC/C(=C\c3ccc(O)c(OC)c3)C2=O)ccc1O [CYCLOVALONE] | < 4.70 | > 20
56 | CCCCC[C@H](O)/C=C/[C@@H]1[C@H]2C/C(=C/CCCC(=O)O)O[C@H]2C[C@H]1O [EPOPROSTENOL] | < 4.70 | > 20
57 | Cc1cc(CC(=O)O)n(C)c1C(=O)c1ccc(Cl)cc1 [ZOMEPIRAC] | < 4.70 | > 20
58 | Cc1cc(/C=C\C#N)cc(C)c1Nc1ccnc(Nc2ccc(C#N)cc2)n1 | < 4.70 | > 20
59 | C[C@H](NC(=O)Cn1nnc2ccccc2c1=O)c1ccc(OC(F)(F)F)cc1 [ZELATRIAZIN] | < 4.70 | > 20
60 | CC1(C)OC2(C)C(O)CC1CC2O (stereo not drawn) [EPOMEDIOL] | < 4.70 | > 20
61 | Cn1c(=O)c2c(ncn2CCOC(=O)C(C)(C)Oc2ccc(Cl)cc2)n(C)c1=O [THEOFIBRATE] | < 4.70 | > 20
62 | COc1c(N2CCNC(C)C2)c(F)cc2c(=O)c(C(=O)O)cn(C3CC3)c12 (stereo not drawn) [GATIFLOXACIN] | < 4.70 | > 20
63 | CN(C)CCc1c[nH]c2ccc(CS(=O)(=O)N3CCCC3)cc12 [ALMOTRIPTAN] | < 4.70 | > 20
64 | C[C@H]1O[C@H](OC[C@@H]2O[C@H](Oc3c(-c4ccc(O)c(O)c4)oc4cc(O)cc(O)c4c3=O)[C@@H](O)[C@H](O)[C@H]2O)[C@@H](O)[C@@H](O)[C@@H]1O | < 4.70 | > 20
65 | CCC(=O)Oc1ccc2c(c1)CCC1C2CCC2(C)C(OC(=O)CC)CCC12 (stereo not drawn) | < 4.70 | > 20
66 | O=[N+]([O-])c1cnc(-c2ccc(F)cc2)n1CCO [FLUNIDAZOLE] | < 4.70 | > 20
67 | C[C@@H](CN1CCOCC1)C(C(=O)N1CCCC1)(c1ccccc1)c1ccccc1 [LEVOMORAMIDE] | < 4.70 | > 20
68 | CC1(C)CC(O)CC(C)(C)N1[O] [TEMPOL] | < 4.70 | > 20
69 | CN1CCN(C(=O)OC2c3nccnc3C(=O)N2c2ccc(Cl)cn2)CC1 (stereo not drawn) [ZOPICLONE] | < 4.70 | > 20
70 | CCOC(=O)Nc1ccc(SC[C@H]2CO[C@](Cn3ccnc3)(c3ccc(Cl)cc3Cl)O2)cc1 | < 4.70 | > 20
71 | CCCOC(=O)Cc1ccc(OCC(=O)N(CC)CC)c(OC)c1 [PROPANIDID] | < 4.70 | > 20
72 | Cc1cc(-n2nc3ccc(Cl)cc3n2)c(O)c(C(C)(C)C)c1 [BUMETRIZOLE] | < 4.70 | > 20
73 | c1ccc([C@@H]2CN3CCSC3=N2)cc1 [DEXAMISOLE] | < 4.70 | > 20
74 | CCN(CCO)CCn1c(Cc2ccccc2)nc2c1c(=O)n(C)c(=O)n2C [BAMIFYLLINE] | < 4.70 | > 20
